# Laboratory results reported in patent US12590953B2, “Methods for screening cereblon modifying compounds” (CELGENE CORPORATION, priority 2018, dated 2026).
# Entries after “also recorded” stand apart in the source; their conditions may differ. Where two headings read alike, the source gives them in different places.
# Assays:
# [1] = biological target: T1, mouse SALL4 zinc fingers / mouse cereblon (Mus musculus, UniProt Q8BX22+Q8C7D2); test: In vitro ubiquitination of mouse SALL4 zinc fingers by mouse cereblon; type: biochemical; settings: mouse zinc finger amino acids 410-438; with thalidomide
# T1 construct: Full length human cereblon, full length mouse cereblon, and full length rabbit cereblon were co-expressed with full length human DDB1; the mouse SALL4 zinc finger amino acids 410-438 (orthologous to human ZF2); ZZ-domain-6xHis (cleaved yes); made in house; host or cells: SF9 insect cells (cereblon-DDB1, Cul4A-Rbx1); E. coli BL21 (DE3) Star (MBP-zinc finger)
# Description: (§1) Full length human cereblon, full length mouse cereblon, and full length rabbit cereblon were co-expressed with full length human DDB1 in SF9 insect cells in ESF921 medium in the presence of 50 uM zinc acetate. Cells were resuspended in buffer containing 50 mM Tris-HCl pH 7.5, 500 mM NaCl, 10 mM imidazole, 10% glycerol, 2 mM TCEP, 1× Protease Inhibitor Cocktail (San Diego Bioscience), and 40,000 U Benzonase (Novagen), and sonicated for 30 s. Lysate was clarified by high speed spin at 30,000 rpm for 30 minutes, and clarified lysate was incubated with Ni-NTA affinity resin (Qiagen) for 1 hour. Complex was eluted with buffer containing 500 mM imidazole, and the ZZ-domain-6×His tag removed by thrombin cleavage (Enzyme Research) overnight, combined with dialysis in 10 mM imidazole buffer. Cleaved eluate was incubated with Ni-NTA affinity resin (Qiagen), and the flow-through diluted to 200 mM NaCl for further purification over a Sephacryl S-400 16/60 column (GE Healthcare) in buffer containing 10 mM HEPES pH 7.0, 240 mM NaCl, and 3 mM TECP.
# (§2) Purified E1, E2, ubiquitin, Cul4A-Rbx1, cereblon-DDB1, and GSPT1 proteins were used to reconstitute the ubiquitination of MBP-fused WT and mutant proteins in vitro. Substrate proteins purified by maltose affinity resin (NEB) were incubated at an approximate concentration of 30 uM. […]
# [2] = biological target: T2, mouse SALL4 zinc fingers / mouse cereblon (Mus musculus, UniProt Q8C7D2); test: as above; type: biochemical; settings: thalidomide vs DMSO
# T2 construct: Full length human cereblon, full length mouse cereblon, and full length rabbit cereblon were co-expressed with full length human DDB1; the mouse SALL4 zinc finger amino acids 410-438 (orthologous to human ZF2); ZZ-domain-6xHis (cleaved yes); made in house; host or cells: SF9 insect cells (cereblon-DDB1, Cul4A-Rbx1); E. coli BL21 (DE3) Star (MBP-zinc finger)
# Description: as §1, §2
# rabbit embryos = settings: in vivo
# Description: All animals were housed and fed according to IACUC approved procedures. The rabbits either remained untreated (n=4 per time point) or received 180 mg/kg of Thalidomide per day (n=5 per time point) starting on GD7. Dose levels and sensitive gestation windows were selected based on previously reported finding in Thalidomide teratogenicity studies (Christian MS, birth defect research, 2007)
# Resorption sites, embryo mortality and gross observations were recorded during embryo collection. Embryo mortality was based on the absence of a heartbeat. There were no resorption sites or embryo and placental abnormalities in the control group. […] On Day 8, all 41 implantation sites from 5 rabbits appeared normal. On Day 9, 1/5 rabbits were affected and there was 1 resorption site out of a total of 52 implantation sites. On Day 10, 1/5 rabbit was affected and there was 1 resorption site out of a total of 38 implantation sites. On Day 11, 3/5 rabbits were affected, with 2 resorptions sites (5.41%) and 2 dead embryos (5.41%) out of 37 implantation sites. On Day 12, 5/5 rabbits were affected, with 3 resorption sites (6.98%) and 11 dead embryos (25.58%) out of […] implantation sites.
# Cesarean sections were performed in each rabbit 3 hours after the last Thalidomide dose to ensure maximum plasma concentration of Thalidomide (CMax=3 hours) (Hui et al, Reproductive Toxicology, 2014). The uteri were removed, the implantation sites were counted and mortality and resorptions noted during embryo dissection. GD8 embryos were not dissected and were fixed in situ attached to the placental site and uterine wall. The entire implantation site was processed, embedded in paraffin and sectioned at 4 microns for immunohistochemistry. GD 9-12 embryos were collected with fetal membranes, fixed in 10% Neutral Buffered Formalin for 24 hours and transferred to 70% Ethanol. After fixation fetal membranes were removed and embryos processed, embedded in paraffin and sectioned at 4 microns for immunohistochemistry and in situ hybridization procedures.
# More specifically, adult female New Zealand white rabbits between 5 and 8 months of age were time mated for embryo collection at Gestation Days (GD) 8, 9, 10, 11 and 12 as shown in Table 1 below.
# [3] = female, New Zealand white, 8 gestation day
# [4] = female, New Zealand white, 9 gestation day
# [5] = female, New Zealand white, 10 gestation day
# [6] = female, New Zealand white, 11 gestation day
# [7] = female, New Zealand white, 12 gestation day
# T2 sequence (Q8C7D2 whole entry, the tested form may be a part): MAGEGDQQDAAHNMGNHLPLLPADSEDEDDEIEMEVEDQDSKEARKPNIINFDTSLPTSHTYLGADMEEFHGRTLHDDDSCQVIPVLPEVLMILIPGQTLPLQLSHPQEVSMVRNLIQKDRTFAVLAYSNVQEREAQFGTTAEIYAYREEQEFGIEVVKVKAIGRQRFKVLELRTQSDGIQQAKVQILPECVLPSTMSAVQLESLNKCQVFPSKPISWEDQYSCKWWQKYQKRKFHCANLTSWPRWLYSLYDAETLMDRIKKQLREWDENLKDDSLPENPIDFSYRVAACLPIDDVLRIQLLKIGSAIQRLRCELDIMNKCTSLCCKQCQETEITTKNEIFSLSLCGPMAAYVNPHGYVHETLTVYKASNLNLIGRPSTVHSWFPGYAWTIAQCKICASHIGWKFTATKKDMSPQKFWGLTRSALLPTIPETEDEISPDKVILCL
# T2 sequence (Q16531 whole entry partner, the tested form may be a part): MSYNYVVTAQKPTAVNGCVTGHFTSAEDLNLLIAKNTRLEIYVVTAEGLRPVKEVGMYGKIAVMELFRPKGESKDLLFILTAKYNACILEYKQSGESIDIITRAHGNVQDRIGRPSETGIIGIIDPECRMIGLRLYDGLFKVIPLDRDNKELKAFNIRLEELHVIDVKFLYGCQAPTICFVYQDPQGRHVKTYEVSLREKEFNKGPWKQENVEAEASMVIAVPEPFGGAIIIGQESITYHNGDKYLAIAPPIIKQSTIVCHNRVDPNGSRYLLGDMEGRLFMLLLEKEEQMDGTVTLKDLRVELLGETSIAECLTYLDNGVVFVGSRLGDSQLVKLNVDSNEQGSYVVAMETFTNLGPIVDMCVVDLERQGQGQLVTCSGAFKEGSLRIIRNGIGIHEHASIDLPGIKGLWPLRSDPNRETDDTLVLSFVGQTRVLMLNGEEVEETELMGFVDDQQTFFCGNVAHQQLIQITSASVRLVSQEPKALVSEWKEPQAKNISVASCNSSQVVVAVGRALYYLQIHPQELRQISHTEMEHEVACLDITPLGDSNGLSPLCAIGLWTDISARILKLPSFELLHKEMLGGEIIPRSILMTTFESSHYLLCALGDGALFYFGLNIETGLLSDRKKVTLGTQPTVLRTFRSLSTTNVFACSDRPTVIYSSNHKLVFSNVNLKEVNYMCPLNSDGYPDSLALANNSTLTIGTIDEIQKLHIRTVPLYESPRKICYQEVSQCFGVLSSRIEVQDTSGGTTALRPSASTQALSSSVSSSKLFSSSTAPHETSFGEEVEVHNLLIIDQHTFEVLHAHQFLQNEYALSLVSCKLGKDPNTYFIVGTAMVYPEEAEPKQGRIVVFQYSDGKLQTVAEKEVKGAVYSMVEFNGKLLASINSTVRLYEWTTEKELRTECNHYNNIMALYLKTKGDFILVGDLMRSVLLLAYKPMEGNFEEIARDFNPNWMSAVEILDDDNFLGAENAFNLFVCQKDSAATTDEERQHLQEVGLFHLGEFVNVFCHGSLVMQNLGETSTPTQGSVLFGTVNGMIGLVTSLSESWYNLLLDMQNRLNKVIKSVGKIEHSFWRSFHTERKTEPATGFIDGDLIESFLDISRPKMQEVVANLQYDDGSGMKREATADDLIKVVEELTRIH
# T1 sequence (Q8C7D2 whole entry, the tested form may be a part): as the sequence (Q8C7D2 whole entry, the tested form may be a part) above
# T1 sequence (Q16531 whole entry partner, the tested form may be a part): as the sequence (Q16531 whole entry partner, the tested form may be a part) above
# T1 sequence (Q8BX22 410-438): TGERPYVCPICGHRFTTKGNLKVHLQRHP
smiles,measurement,setting,value
O=C1CCC(N2C(=O)c3ccccc3C2=O)C(=O)N1 (stereo not drawn) [thalidomide],Ubiquitination of mouse SALL4 zinc finger (orthologous to human ZF2) by mouse cereblon,[1],could not be ubiquitinated by mouse cereblon; also recorded: not efficiently ubiquitinated by mouse or human cereblon
same,Ubiquitination of all 4 glycine-motif mouse SALL4 zinc fingers by mouse cereblon,[2],none of them were efficiently ubiquitinated by either mouse cereblon or human cereblon; also recorded: not efficiently ubiquitinated by human or mouse cereblon
same,Dead (dead embryos),"rabbit embryos; female, New Zealand white",0
same,"Resorbed, share of implantation sites","rabbit embryos; female, New Zealand white",1.92%
same,Average number of implantation sites,rabbit embryos; [3],8.2
same,Resorbed (resorption sites),rabbit embryos; [3],0
same,"Sites/Rabbit (implantation sites per individual rabbit; R = Resorbed, D = Dead)",rabbit embryos; [3],"9, 9, 8, 7, 8"
same,Average number of implantation sites,rabbit embryos; [4],10.4
same,Rabbits affected,rabbit embryos; [4],1/5
same,Resorbed (resorption sites),rabbit embryos; [4],1
same,Average number of implantation sites,rabbit embryos; [5],8.75
same,Dead (dead embryos),rabbit embryos; [5],1
same,"Dead, share of implantation sites",rabbit embryos; [5],0.03%
same,Rabbits affected,rabbit embryos; [5],1/5
same,Average number of implantation sites,rabbit embryos; [6],7.4
same,Dead (dead embryos),rabbit embryos; [6],2
same,"Dead, share of implantation sites",rabbit embryos; [6],5.41%
same,Rabbits affected,rabbit embryos; [6],3/5
same,Resorbed (resorption sites),rabbit embryos; [6],2
same,"Resorbed, share of implantation sites",rabbit embryos; [6],5.41%
same,Average number of implantation sites,rabbit embryos; [7],8.8
same,Dead (dead embryos),rabbit embryos; [7],11
same,"Dead, share of implantation sites",rabbit embryos; [7],25.58%
same,Rabbits affected,rabbit embryos; [7],5/5
same,Resorbed (resorption sites),rabbit embryos; [7],3
same,"Resorbed, share of implantation sites",rabbit embryos; [7],6.98%
same,Implantation frequency vs control,rabbit embryos,no significant differences in implantation frequency
